# Measured values taken from publication PMC7385626 (Scientific Reports, 2020).
# Legend:
# St. pyogenez ATCC176 = assay: Serial microdilution assay (MIC); type: cell-based, Steptococcus Pyogerez
# Procedure: (§1) […]. […] Four types of gram-positive bacterial strains (St. pyogenez, B. subtilis, B. cereus, S. aureus) and five types of the gram-negative (S. enteridis, E. aerogenes, P. aeruginosa, E. coli, and S. gallinarum) were sensitive to 4 and 1. […]. The minimal inhibitory concentration value was studied for the microorganism cells, which evaluated to sensitive the substances and they tested in the disc-diffusion method. Inoculate of microorganism was prepared utilizing 12 h suspensions and broth cultures were adjusted to 0.5 McFarland turbidity standard. Each substance was dissolved in 10% dimethyl sulfoxide which diluted to the highest concentration (1000 µg/mL) for testing. […]. Also, prepared suspensions for standard microorganisms were added to each dilution in a 1:1 ratio. Growth act of microorganism cells was determined visually after incubation at 36 °C. The minimum concentration was no visible growth which was taken as the MIC.
# S. aureus ATCC29213 = assay: Serial microdilution assay (MIC); type: cell-based, Staphylococcus aureus
# Procedure: as §1
# [1] = test system: bacterial strains (four gram-positive, five gram-negative); assay: Serial microdilution assay (MIC), range over the bacterial strains; type: cell-based
# Procedure: as §1
# S. enteridis ATCC13076 = assay: Serial microdilution assay (MIC); type: cell-based, Salmonella Enteritidis
# Procedure: as §1
# B. subtilis ATCC6633 = assay: Serial microdilution assay (MIC); type: cell-based, Bacillus Subtilis
# Procedure: as §1
# B. cereus DSM 4312 = assay: Serial microdilution assay (MIC); type: cell-based, Bacillus Cereus
# Procedure: as §1
# S. gallinarum = assay: Serial microdilution assay (MIC); type: cell-based, Salmonella Gallinarum
# Procedure: as §1
# E. aerogenes ATCC2924 = assay: Serial microdilution assay (MIC); type: cell-based, Enterobacter Aerogenes
# Procedure: as §1
# [2] = test system: bacterial strains (four gram-positive, five gram-negative); assay: Disc diffusion assay, range over the bacterial strains; type: cell-based
# Procedure: […]. […] Four types of gram-positive bacterial strains (St. pyogenez, B. subtilis, B. cereus, S. aureus) and five types of the gram-negative (S. enteridis, E. aerogenes, P. aeruginosa, E. coli, and S. gallinarum) were sensitive to 4 and 1. […]. In this study, 10 microbial cultures of this part, belonging to ten types of bacterial were used. The culture was grown in Mueller–Hinton Broth (Merck) for all the bacterial strains at 36 °C. Antimicrobial test was carried out by using disc-diffusion assay utilizing 100 µL of suspension with 10^8 CFU/mL of bacteria and 10^6 CFU/mL of yeast spread on Nutrient Agar and Potato Dextrose Agar, respectively. Also, the blank disc (Oxoid = 6 mm in diameter) was impregnated with 20 µL of each substance (105 µg/disc) and placed on the inoculated agar. Negative controls ([…]) were prepared using the same solvent (water) employed to dissolve each substance. […]. The inoculated plate was incubated at 36 °C for clinical bacterial strains. Antimicrobial activities were evaluated by obtaining the zone of inhibitory effect against the test organisms.
# E. coli 111 = assay: Serial microdilution assay (MIC); type: cell-based, Escherichia coli
# Procedure: as §1
substance,measurement,setting,value
[Cd(N-bishydeten)]4[Ag(CN)2]8[Ag(CN)]2 [Complex 4],"Minimum-inhibitory concentrations (MIC), St. pyogenez ATCC176",St. pyogenez ATCC176,31.25 ± 9.02 µg/mL
same,"Minimum-inhibitory concentrations (MIC), S. aureus ATCC29213",S. aureus ATCC29213,62.50 ± 0.0 µg/mL
same,"MIC, joint range for 4 and 1 over the strains",[1],15.62 to 125 µg/mL
same,"MIC, range over the bacterial strains",[1],31.25 to 125 µg/mL
same,"Minimum-inhibitory concentrations (MIC), S. enteridis ATCC13076",S. enteridis ATCC13076,62.50 ± 0.14 µg/mL
same,"Minimum-inhibitory concentrations (MIC), B. subtilis ATCC6633",B. subtilis ATCC6633,31.25 ± 0.0 µg/mL
same,"Minimum-inhibitory concentrations (MIC), B. cereus DSM 4312",B. cereus DSM 4312,62.50 ± 18.04 µg/mL
same,"Minimum-inhibitory concentrations (MIC), S. gallinarum",S. gallinarum,125 ± 0.0 µg/mL
same,"Minimum-inhibitory concentrations (MIC), E. aerogenes ATCC2924",E. aerogenes ATCC2924,125 ± 53.40 µg/mL
same,"inhibition zones, range over the bacterial strains",[2],25–37 mm
same,"Minimum-inhibitory concentrations (MIC), E. coli 111",E. coli 111,31.25 ± 0.0 µg/mL
